Reference: patent US20030036556A1, “Zonisamide use in headache” (priority 2001, published 2003)
Like-named read-outs stand apart in the source and are kept apart here.

Legend:
[1] = tested on: refractory migraines and mixed headache disorders; test: Open-label adjunctive zonisamide treatment of refractory headache patients (Example 1); type: in vivo, human
Method: Thirty-three (33) patients from an active headache clinic population were selected for open-label treatment with zonisamide. All patients had refractory migraines and mixed headache disorders, as defined by International Headache Society criteria. All had failed or responded poorly to trials with other anticonvulsants as prophylactic therapy. Most patients (n=27) had failed at least 2 such agents, and 17 had failed 3 agents. […] (Table 1). Zonisamide was initiated as adjunctive therapy: 100 mg of the medication was given in the evening or at bedtime every fourth day for 4 to 5 doses. Consequently, dosing was increased to every third day, every other day, and finally to a daily dose. Dose adjustments of zonisamide were made in increments of 100 mg, every 2 to 3 weeks, with a daily maximum dose of 500 mg, in some cases. Headache severity was rated on a 0 to 10 numeric rating scale (NRS).

[2] = tested on: CDH (chronic daily headache); test: Zonisamide for prophylaxis of chronic daily headache (Example 2); type: in vivo, human; conditions: for Mean number of headache days per month: baseline 22
Method: Sixteen patients who received zonisamide for prophylaxis of CDH (i.e., >15 headache days/month) for at least 3 months were included in this study. […] Zonisamide therapy was initiated at 100 mg/day, and 6 patients were titrated to a zonisamide dosage of 200 mg/day after 2 weeks. Patient headache diaries were used to record information, regarding headache frequency, duration, severity, and disability ratings. Headache severity and disability were rated using a 4-point scale (0=none; 1=mild; 2=moderate; 3=severe). Headache diaries and clinic records were used to determine mean headache duration, frequency, severity, disability for each patient 1 month prior to initiation of zonisamide therapy (baseline) and again 3 months after stable zonisamide dosage was established.

[3] = tested on: chronic pain disorders (neuropathic pain), refractory migraine headaches; test: Zonisamide treatment of chronic pain and refractory headache patients (Example 3); type: in vivo, human
Excerpt: Twenty-five patients with various chronic pain disorders were selected for treatment with zonisamide. All had neuropathic pain of one kind or another. Fifteen had failed back/neck surgeries with ongoing radicular pain, 4 had complex regional pain syndrome (type 1), 4 had diabetic neuropathy, and 2 had painful sensory neuropathy. All had failed, or responded minimally at best, to trials of numerous other anticonvulsants (neuronal stabilizing agents) for prior treatment of pain symptoms. Eighteen were on such therapy at the time of starting zonisamide therapy. Twenty-two patients with refractory migraine headaches of mixed headache disorders were similarly selected for zonisamide therapy. Most (n=17) had failed 3 or more other neuronal stabilizing agents as prophylaxis therapy for their headaches. […] Zonisamide was begun at 100 mg every third day for 3 to 5 doses, with an increase to every-other-day dosing and then to a daily dose. Dosage changes were made every 2 weeks at a minimum. Headache and pain spores were rated on a 0 to 10 numeric rating scale by each patient.

[4] = tested on: chronic pain disorders, all with neuropathic pain; test: Zonisamide treatment of chronic pain patients (Example 4); type: in vivo, human
Method: This study included 30 patients with various chronic pain disorders, all with neuropathic pain (Table 1). All patients had previously failed or responded minimally to numerous other anticonvulsants (neuronal stabilizing agents) for treatment of painful symptoms. Twenty-three patients were on such therapy at the time zonisamide therapy was initiated. Zonisamide therapy was initiated at 100 mg every fourth day for 3 to 6 doses, with an increase to every third day, then to every other day, and finally to a daily dose. Adjustments in the dose of zonisamide were made no more than every 2 weeks. Headache and pain scores were rated on a 0 to 10 numeric rating scale (NRS) by each patient.

[5] = tested on: generalized seizures in the kindled rat model; conditions: cited from earlier work
cortical focal seizures = conditions: electrical stimulation of the visual cortex in cats; cited from earlier work
[6] = tested on: interictal spikes and secondarily generalized seizures; conditions: cortical application of tungstic acid gel in rats; cited from earlier work
[7] = tested on: interictal spikes and secondarily generalized seizures; conditions: cortical freezing in cats; cited from earlier work
sodium channels = conditions: in vitro, cited from earlier work
T-type Ca2+ currents = conditions: in vitro, cited from earlier work
[8] = tested on: GABA/benzodiazepine receptor ionophore complex; conditions: in vitro, cited from earlier work
[9] = tested on: cultured mouse spinal cord neurons; conditions: zonisamide 10-30 μg/mL; cited from earlier work
rat hippocampal slices = conditions: zonisamide 10-30 μg/mL; cited from earlier work
[10] = tested on: dopaminergic and serotonergic neurotransmission; conditions: in vivo microdialysis; cited from earlier work

In the case of `NS(=O)(=O)Cc1noc2ccccc12` [zonisamide, 1,2-benzisoxazole-3-methanesulfonamide], the “number of patients (n) with discontinuation due to side effects” value ([1]; 33 patients) is reported as 4, the “number of patients (n) with no response” value ([1]; 33 patients) is reported as 3 and the “number of patients (n) with 25% to 50% decrease in headache frequency” value ([1]; after at least 2 months of zonisamide therapy, 33 patients) is reported as 8. For the same compound, the “number of patients (n) with ≧65% decrease in headache frequency” value ([1]; after at least 2 months of zonisamide therapy, 33 patients, 10 still in titration) was 6, the “patients who did not respond” value ([1]; of 33 patients) was 9 % of total and the “patients who dropped the medication due to side effects” value ([1]; of 33 patients) was 12 % of total. The Mean disability rating ([2]; 4-point scale (0=none to 3=severe), after 3 months, baseline 1.48) was 1.12, the “Mean headache severity rating” value ([2]; 4-point scale (0=none to 3=severe), after 3 months, baseline 1.84) was 1.41 and the Mean headache duration ([2]; after 3 months at stable dosage, mean dosage 137.5 mg/d, baseline 8.46) was 6.41 h. For the same compound, the “Mean number of headache days per month” value ([2]; after 3 months at stable dosage, mean dosage 137.5 mg/d, n=16) was 5 days/month, the “Mean number of headache days per month” value ([2]; after 3 months at stable dosage, mean dosage 137.5 mg/d, n=16, listed as Zonismide) was 14.5 days/month and the “decrease of mean disability rating” value ([2]; after 3 months vs baseline) was 24%. The “decrease of mean headache rating” value ([2]; after 3 months vs baseline) was 23%, the “reduction of mean headache duration” value ([2]; after 3 months vs baseline) was 24% and the “reduction of total headache time” value ([2]; after 3 months vs baseline) was 50%. For the same compound, the “reduction of mean number of headache days/month” value ([2]; after 3 months vs baseline, mean dosage 137.5 mg/d) was 34%, the mean weight loss ([2]; in the 9 patients with weight loss) was 11 lb and the “adverse events: number of patients with mild diarrhea” value ([2]; n=16) was 2 patients. The “adverse events: number of patients with weight loss” value ([2]; n=16) was 9 patients, the tolerability ([2]; n=16, 3 months) was “well tolerated” and the Total headache time ([2]; on zonisamide after 3 months, baseline 186) was 93 hours/month. The “number of patients with pain reductions averaging 60% or better” value ([3]; 0 to 10 numeric rating scale) was 6 patients, the “number of patients with reductions in pain of 30% to 50%” value ([3]; 0 to 10 numeric rating scale) was “Six” and the “number of patients with slight reductions (less than 25%)” value ([3]; 0 to 10 numeric rating scale) was “Four”. For the same compound, the “number of patients with no pain relief and/or side effects” value ([3]; human, in vivo) was 7 patients, the “number of patients with no pain relief and/or reported side effects” value ([4]; 30 patients) was 5 patients and the “number of patients with slight (less than 25%) pain reductions” value ([4]; 30 patients) was “Five”. The “number of patients with pain reductions of 60% or greater” value ([4]; after at least 2 months of zonisamide therapy, 30 patients) was 10 patients, the “number of patients with 30% to 50% reductions in pain” value ([4]; after at least 2 months, 30 patients) was 7 patients and the “share of patients with 30% to 50% reductions in pain” value ([4]; of 30 patients) was 23%. For the same compound, the “share of patients with no pain relief and/or reported side effects” value ([4]; of 30 patients) was 17%, the “share of patients with pain reductions of 60% or greater” value ([4]; of 30 patients) was 30% and the “share of patients with slight (less than 25%) pain reductions” value ([4]; of 30 patients) was 17%. For the same compound, the “effect on threshold for generalized seizures” value [5] was “anticonvulsant activity”, the “duration of cortical focal seizures” value (cortical focal seizures) was “reduced the duration” and the “interictal spikes and secondarily generalized seizures” value [6] was “suppressed”. The “interictal spikes and secondarily generalized seizures” value [7] was “suppressed”, the “effect on sodium channels” value (sodium channels) was “blocks” and the “effect on sodium channels” value (sodium channels; listed as Zonisamide) was “inhibits”. For the same compound, the “effect on voltage-dependent, transient inward currents (T-type Ca2+ currents)” value (T-type Ca2+ currents) was “reduces”, the “effect on voltage-dependent, transient inward currents (T-type Ca2+ currents)” value (T-type Ca2+ currents; listed as Zonisamide) was “blocks” and the “binding to the GABA/benzodiazepine receptor ionophore complex” value ([8]; allosteric fashion) was “binds”. The “changes in chloride flux” value [8] was “does not produce changes”, the “post-synaptic GABA or glutamate responses” value [9] was “without affecting” and the synaptically-driven electrical activity [9] was “suppresses”. The “neuronal or glial uptake of [3H]-GABA” value (rat hippocampal slices) was “without affecting” and the “dopaminergic and serotonergic neurotransmission” value [10] was “facilitates”.
